# “Also recorded” adds a separate entry of the source.
# Key:
# NK cells = assay: Lytic granule dispersion in pretreated NK cells seeded on surfaces coated with activating antibodies; format: cell-based; details: NK cells pretreated at 5 μM for 30 min
# Excerpt: FIGS. 59B-59E are magnified image of marked areas in FIG. 59A focusing on cells with dispersed granule. Perforin staining is shown in green, and alpha-tubulin is staining is shown in red.
# FIGS. 60B-60E are magnified image of marked areas in FIG. 60A focusing on cells with dispersed granule. The position of the granules is indicated by perforin staining.
# FIGS. 61B-61E are magnified image of marked areas in FIG. 61A focusing on cells with dispersed granule. The position of the granules is indicated by perforin staining.
# NK cells were pretreated with N-{1-[(4-chlorophenyl)methyl]piperidin-4-yl}prop-2-enamide (FIG. 56) at […] for 30 min. The treated NK cells were seeded onto surfaces coated with activating antibodies.
# NK cells were pretreated with 1-(prop-2-enamido)-N-[(thiophen-2-yl)methyl]cyclohexane-1-carboxamide (FIG. 57) at 5 μM for 30 min. The treated NK cells were seeded onto surfaces coated with activating antibodies.
# NK cells were pretreated 1-[3-(4-fluorophenyl) prop-2-enoyl]-4-hydroxypyrrolidine-2-carboxylic acid (FIG. 58) at 5 μM for 30 min. The treated NK cells were seeded onto surfaces coated with activating antibodies.
# YTS cells [1] = assay: Number of MTOC (alpha-tubulin hyper densities) in YTS cells treated with PLK4 inhibitors; format: cell-based; details: 5 days, Centrinone 5 nM or CFI400495 50 nM
# Procedure: (§1) Centrinone and CFI400495 are high affinity and selective PLK4 inhibitors that induce depletion of the centrosome and cell cycle arrest. YTS cells were treated for 5 days with Centrinone 5 nM or CFI400495 50 nM. […] For this experiment, 5×10^5 cells/ml YTS cells were incubated during 5 days Centrinone 5 nM or CFI400495 50 nM, every 24 hours the media were replaced with fresh media containing similar amounts of the drug. On day 5, cells were assessed by microscopy for gamma-tubulin or alpha-tubulin.
# YTS cells [2] = assay: CD107a degranulation of treated YTS cells after conjugation with 721.221 target cells; format: cell-based; details: 5 days, Centrinone 5 nM or CFI400495 50 nM
# Procedure: CD107a (also known as LAMP-1) is the standard to measure the process of degranulation. The more CD107a is expressed on the surface of the cell after stimulation, the more granules have been released. This is limited to the immunological synapse, in part secondary to the convergence process. CD107a upregulation is measured via flow cytometry after PMA/lonomycin activation and can be measured following target cell conjugation. […] The latter requires synapse formation and engagement of receptors for downstream activation signaling. Differences in results between these two approaches (target cell conjugation versus PMA/lonomycin) map the candidate's impact to early (synapse formation and signaling) or late (mechanics of) degranulation.
# as §1
# YTS cells [3] = assay: Confocal microscopy of granule dispersion in YTS cells after Centrinone or CFI400495; format: cell-based; details: YTS cells after treatment with Centrinone or CFI400495
# Procedure: as §1
# YTS cells [4] = assay: Golgi fragmentation and granule dispersion in LPA-stimulated YTS cells; format: cell-based; details: 20 μM LPA for two hours, sodium salt
# Procedure: One way to induce the Golgi outpost formation through elongation and fission, is using LPA, which is predicted to activate a pathway dependent on transforming protein RhoA and effectively induce the formation of Golgi Outpost. […] The cells were also tested for Cr-51 (FIG. 14C). […] This dispersion was thus increased in quantity and spread on the GCC2 KO cells.
# NK cell [5] = details: previous work, cited from earlier work
# NK cell [6] = assay: Durability/reversibility of deconvergence after the inhibitor is removed from media; format: cell-based; details: NK cell activation on activating glass surface at different times after removal from media
# Procedure: (§2) YTS cells were treated with DMSO or one of three different dynein inhibitors (Ciliobrevin-D, Dynapyrazole-A, or Compound 3016) and then incubated on an activating glass surface for 30 min. Cells were fixed, stained for a-tubulin, F-actin, perforin, and DNA (DAPI), and imaged via spinning disc confocal microscopy. Examples of individual cells (top) showing all stains and a broader field (bottom) at lower magnification showing only perforin to give an impression of the degree of granule convergence in a field of cells (FIG. 10A). […] Points show mean+SD of 3 independent experiments measuring >20 cells each.
# Reversibility time for convergence is determined by activating small molecule inhibitor pre-treated NK cells on anti-NKp30/anti-CD18-coated or anti-CD28/anti-CD18 glass surfaces in the absence of the compound of interest. In short-term live-cell experiments, cells are labeled with lysotracker and fluorescent protein-conjugated tubulin; for longer term experiments, the more durable lytic granule label, LAMP1-mApple, is used. The efficiency of non-directional degranulation will be measured with the previously disclosed LAMP1-pHluorin cell line, which marks the lytic granule pH change that accompanies degranulation. […]
# YTS cells [7] = assay: Lytic granule convergence/dispersion in dynein inhibitor-treated YTS cells on an activating glass surface (confocal microscopy); format: cell-based; details: dynein inhibitor vs DMSO, activating glass surface 30 min
# Procedure: as §2
# This work served as proof-of-concept that influencing positional degranulation can be used to harness the NK cell lytic machinery.
# To identify the best candidates to control lytic granule positioning, a high throughput screen (HTS) for activation-induced lytic granule convergence was developed. This is a novel method that utilizes a simple shape-based approach (a grid based on the a-tubulin defined NK cell footprint and Euclidean distance from the MTOC) to generate an estimated mean granule distance (eMGD) from the MTOC (FIGS. 11A-11C). This approach allows us to quickly screen large numbers of molecular candidates. MGD will be measured in 3D in fixed NK cells activated on an anti-NKp30/anti-CD18 or anti-CD28/anti-CD18 coated glass surface over a range of activation times, conditions, and NK cell types. Cells will be stained to identify the MTOC (for example, pericentrin) and lytic granules (mature perforin). The measured MGD is an indicator of convergence.
# bystander K562 cells = assay: Bystander killing by Dynapyrazole A-pretreated YTS cells; format: cell-based; details: YTS cells pretreated with 5 μM for 30 minutes
# Excerpt: The graph is representative of three independently performed biological repeats.
# To assess tumor cell and bystander killing, TheCOS comprises NK cell lines, tumor cell targets, and NK-resistant tumor cell bystanders. LAMP1-mApple-pHluorin-expressing NK cell lines enable visualization of granules (mApple) and degranulation events (pHluorin transition). mTurquoise2 mark susceptible tumor cells, and Citrine mark bystander cells. SYTOX deep red is included in the hydrogel to identify the nuclei of dying cells. A cell positive for Turquoise and SYTOX fluorescence denote a dying tumor cell, whereas a cell positive for Citrine and SYTOX indicate a dying bystander cell. 1×10^5 target tumor cells and 1×10^5 NK cells (for an initial 1:1 tumor to effector ratio)+/−1×10^6 bystander cells are deposited into separate thermally responsive hydrogel layers and then encased in thermally stable hydrogel. This sandwich is then deposited the into our imaging chamber. Prewarmed media is added to collapse the hydrogel layers.
# (§3) YTS cells are treated with 5 μM of Dynapyrazole A for 30 minutes, then washed twice with culture media. Then cells are stimulated either with 721.221 target cells, K562 target cells, or with an activating surface (coverslip coated with anti CD18 and/or anti CD28).
# YTS cells [8] = assay: Granule distance to MTOC in Dynapyrazole A-treated YTS cells on a CD28/CD18 activating surface; format: cell-based; details: 5 μM for 30 minutes, washed
# Procedure: as §3
# YTS cells [9] = assay: Mean granule distance (MGD) and automated estimated MGD (eMGD) from the MTOC in activated YTS cells; format: cell-based; details: YTS cells activated on glass via CD18/CD28 for 30 minutes, p<0.01
# Excerpt: FIGS. 11A-11H depict exemplary results related to mean granule distance (MGD) and automated estimated mean granule distance (eMGD). FIG. 11A depicts an exemplary high-resolution confocal imaging of lytic granules (labeled by perforin) and tubulin, which allows for automated intensity threshold-based identification of granules as shown in FIG. 11B (outlines indicate for granules and the microtubule-organizing center (MTOC)). FIG. 11C depicts the equation for calculating […] using x and y coordinates of each granule relative to the MTOC. […] FIG. 11E is an exemplary image of a fixed NK cell from the screen (labeled with perforin and tubulin) to which the Euclidean method for assessing granule localization relative to a total cell, tubulin-defined footprint of FIG. 11F can be applied. eMGD is then calculated using a Matlab script and the formula shown in FIG. 11G. […]
# To identify the best candidates to control lytic granule positioning, a high throughput screen (HTS) for activation-induced lytic granule convergence was developed. […] MGD will be measured in 3D in fixed NK cells activated on an anti-NKp30/anti-CD18 or anti-CD28/anti-CD18 coated glass surface over a range of activation times, conditions, and NK cell types. […] The measured MGD is an indicator of convergence. […]
molecule,measurement,setting,value
"O=C(O)C1CC(O)CN1C(=O)C=Cc1ccc(F)cc1 (stereo not shown) [Compound 3977, 1-[3-(4-fluorophenyl)prop-2-enoyl]-4-hydroxypyrrolidine-2-carboxylic acid]",lytic granule dispersion,NK cells,induce lytic granule dispersion; also recorded: lytic granule dispersion induced
"COc1c(Nc2cc(C)[nH]n2)nc(Sc2ccc(S(=O)(=O)Cc3cccc([N+](=O)[O-])c3F)cc2F)nc1N1CCOCC1 [Centrinone, 2-[[2-Fluoro-4-[[(2-fluoro-3-nitrophenyl)methyl]sulfonyl]phenyl]thio]-5-methoxy-N-(5-methyl-1H-pyrazol-3-yl)-6-(4-morpholinyl)-4-pyrimidinamine]",number of MTOC (alpha Tubulin hyper densities),YTS cells [1],increase number of mTOC
same,degranulation (CD107a expression),YTS cells [2],increases degranulation
same,granule dispersion (confocal microscopy images),YTS cells [3],more disperse granules
"C=CC(=O)NC1CCN(Cc2ccc(Cl)cc2)CC1 [Compound 5814, N-{1-[(4-chlorophenyl)methyl]piperidin-4-yl}prop-2-enamide]",lytic granule dispersion,NK cells,induce lytic granule dispersion; also recorded: lytic granule dispersion induced
1-Oleoyl lysophosphatidic acid sodium salt [LPA],Golgi fragmentation,YTS cells [4],increase in Golgi fragments; also recorded: Golgi fragmentation
same,granule dispersion / convergence,YTS cells [4],blocks convergence; also recorded: granule dispersion
"N#CC(C(=O)c1ccc(Cl)cc1Cl)=C1NC(=O)c2ccc(Cl)cc2N1 [Ciliobrevin D, 2-(7-chloro-4-oxo-3,4-dihydroquinazolin-2 (1H)-ylidene)-3-(2,4-dichlorophenyl)-3-oxopropanenitrile]",killing of bystander cells,NK cell [5]; UGATm and other single cell assays,promoted killing of bystander cells
same,inhibition of lytic granule convergence (previously used),NK cell [5],inhibit lytic granule convergence
same,durability of deconvergence after inhibitor removed from media,NK cell [6],"Neither inhibitor, however, promotes sustained deconvergence"
same,durability of deconvergence after inhibitor removed from media,NK cell [6]; listed as CIL-D,quickly reversible
same,lytic granule convergence / dispersion,YTS cells [7],lytic granule dispersion
same,lytic granule convergence / dispersion,YTS cells [7]; listed as CIL-D,highly effective in preventing lytic granule convergence
"N#Cc1c(C2(c3ccc(Cl)cc3)CC2)nn2c1[nH]c(=O)c1cc(I)ccc12 [Dynapyrazole A, 2-[1-(4-Chlorophenyl)cyclopropyl]-4,5-dihydro-7-iodo-5-oxopyrazolo[1,5-a]quinazoline-3-carbonitrile]",killing of bystander K562 cells,bystander K562 cells,kill bystander K562 cells
same,killing of bystander K562 cells,bystander K562 cells; listed as Dynapyrazole-A,kill bystander K652 cells
same,lytic granule dispersion (granule distance to MTOC),YTS cells [8],induces lytic granule dispersion
same,lytic granule dispersion (granule distance to MTOC),YTS cells [8]; listed as Dynapyrazole-A,high lytic granule dispersion
same,"estimated mean granule distance (eMGD), change vs DMSO",YTS cells [9]; GE InCell Analyzer,Increase
same,"mean granule distance (MGD), change vs DMSO",YTS cells [9]; confocal microscope,Increase
same,lytic granule convergence / dispersion,YTS cells [7]; listed as Dynapyrazole-A,lytic granule dispersion
same,lytic granule convergence / dispersion,YTS cells [7]; listed as dynapyrazole-A,highly effective in preventing lytic granule convergence
"C=CC(=O)NC1(C(=O)NCc2cccs2)CCCCC1 [Compound 7779, 1-(prop-2-enamido)-N-[(thiophen-2-yl)methyl]cyclohexane-1-carboxamide]",lytic granule dispersion,NK cells,induce lytic granule dispersion; also recorded: lytic granule dispersion induced
